Article PMC8901636, “Preclinical studies of Flonoltinib Maleate, a novel JAK2/FLT3 inhibitor, in treatment of JAK2^V617F-induced myeloproliferative neoplasms” (Blood Cancer Journal, 2022)
Where two headings read alike, the source gives them in different places.

What was measured:
[1] = system: JAK2/JAK2 signaling; assay: Cytokine-stimulated cell-based assay, GM-CSF-induced p-STAT5; conditions: western blotting
[2] = system: Ba/F3-JAK2^WT; assay: MTT assay for cell proliferation; type: cell-based, Murine; conditions: Mus musculus, 72 h, read-out: IC50(μM) ± SD, tumor cell proliferation
Protocol: (§2) For in vitro inhibition assays, cells were seeded in 96-well culture plates with a density of 15,000–20,000 cells/well after the cells reached 70–90% confluence. […] MTT (3-(4, 5-dimethylthiazol-2-yl)-2, 5-diphenyltetrazolium bromide) (Cat. No. 1334GR001; BioFroxx) assay was conducted in order to examine viability. The IC50 values were fitted using GraphPad Prism 7.0.

[3] = system: Ba/F3-EPOR; assay: MTT assay for cell proliferation; type: cell-based, Murine; conditions: Mus musculus, 72 h, read-out: IC50(μM) ± SD, tumor cell proliferation
Protocol: as §2

[4] = system: Ba/F3-EPOR-JAK2^V617F; assay: MTT assay for cell proliferation; type: cell-based, Murine; conditions: Mus musculus
Protocol: as §2

[5] = system: MV-4-11; assay: MTT assay for cell proliferation; type: cell-based; conditions: Homo sapiens, MV4-11, 72 h, read-out: IC50(μM) ± SD, tumor cell proliferation
Protocol: as §2

[6] = system: Ba/F3-FLT3-ITD; assay: MTT assay for cell proliferation; type: cell-based, Murine; conditions: Mus musculus, Ba/F3 FLT3-ITD, 72 h, read-out: IC50(μM) ± SD, tumor cell proliferation
Protocol: as §2

[7] = system: Ba/F3-FLT3-ITD^F691; assay: MTT assay for cell proliferation; type: cell-based, Murine; conditions: Mus musculus, 72 h, read-out: IC50(μM) ± SD, tumor cell proliferation
Protocol: as §2

[8] = system: Ba/F3-FLT3-ITD^D835V; assay: MTT assay for cell proliferation; type: cell-based, Murine; conditions: Mus musculus, 72 h, read-out: IC50(μM) ± SD, tumor cell proliferation
Protocol: as §2

[9] = system: FLT3 mutant tumor cell lines; assay: MTT assay for cell proliferation, summary of panel; type: cell-based; conditions: summary of Table S7
Protocol: (§1) For in vitro inhibition assays, cells were seeded in 96-well culture plates with a density of 15,000–20,000 cells/well after the cells reached 70–90% confluence. After overnight incubation, the cells received a supplement of serial concentrations of FM and underwent 72 h incubation at 37 °C under 5% CO2. MTT (3-(4, 5-dimethylthiazol-2-yl)-2, 5-diphenyltetrazolium bromide) (Cat. No. 1334GR001; BioFroxx) assay was conducted in order to examine viability. The IC50 values were fitted using GraphPad Prism 7.0.

[10] = system: JAK2^V617F mutant cell lines; assay: MTT assay for cell proliferation, summary of panel; type: cell-based; conditions: summary of Table S7; read-out: anti-proliferative IC50 on JAK2^V617F mutant cell lines
Protocol: as §1

[11] = PK and tissue distribution after repeated oral administration in Ba/F3-EPOR-JAK2^V617F tumor-bearing mice; type: in vivo; conditions: BALB/c nude, mouse, oral, 30 mg/kg, repeated
[12] = brain, read-out: FM concentration, Brain
[13] = heart, read-out: FM concentration, Heart
[14] = intestine, read-out: FM concentration, Intestine
[15] = kidney, read-out: FM concentration, Kidney
[16] = liver, read-out: FM concentration, Liver
[17] = lung, read-out: FM concentration, Lung
[18] = muscle, read-out: FM concentration, Muscle

## Cc1cnc(Nc2ccc(N3CCC(N(C)CCO)CC3)c(F)c2)nc1-c1cnn(C(C)C)c1 [FM, 2-((1-(2-fluoro-4-((4-(1-isopropyl-1H-pyrazol-4-yl)-5-methylpyrimidin-2-yl)amino)phenyl)piperidin-4-yl)(methyl)amino)ethan-1-ol]
[1]
  IC50: 120 nM
[2]
  IC50: 0.39 ± 0.2 µM
[3]
  IC50: 0.55 ± 0.13 µM
[4]; 72 h, read-out: IC50(μM) ± SD, tumor cell proliferation
  IC50: 0.78 ± 0.21 µM
[4]; as quoted in PK/PD text, read-out: IC50 value of Ba/F3-EPOR-JAK2^V617F cells in vitro
  IC50: 0.79 ± 0.01 µM
[5]
  IC50: 0.01 ± 0.01 µM
[6]
  IC50: 0.12 ± 0.01 µM
[7]
  IC50: 0.15 ± 0.02 µM
[8]
  IC50: 0.1 ± 0.06 µM
[9]
  IC50: < 100 nM
[10]
  IC50: < 500 nM
[11]; [12]
  concentration at 0 h: 6.3 ± 3.68 ng/g
  concentration at 0.5 h: 283 ± 93.8 ng/g
  concentration at 2 h: 369 ± 113 ng/g
  concentration at 4 h: 492 ± 754 ng/g
  concentration at 8 h: 47 ± 31.3 ng/g
  concentration at 12 h: 10.8 ± 4.65 ng/g
[11]; [13]
  concentration at 0 h: 7.06 ± 1.49 ng/g
  concentration at 0.5 h: 1890 ± 756 ng/g
  concentration at 2 h: 1320 ± 674 ng/g
  concentration at 4 h: 578 ± 356 ng/g
  concentration at 8 h: 357 ± 376 ng/g
  concentration at 12 h: 15.8 ± 11.3 ng/g
[11]; [14]
  concentration at 0 h: 21.4 ± 19.1 ng/g
  concentration at 0.5 h: 31200 ± 12600 ng/g
  concentration at 2 h: 4210 ± 1320 ng/g
  concentration at 4 h: 9610 ± 6020 ng/g
  concentration at 8 h: 1380 ± 1370 ng/g
  concentration at 12 h: 250 ± 337 ng/g
[11]; [15]
  concentration at 0 h: 16.6 ± 1.41 ng/g
  concentration at 0.5 h: 11800 ± 3010 ng/g
  concentration at 2 h: 7560 ± 1990 ng/g
  concentration at 4 h: 4640 ± 1860 ng/g
  concentration at 8 h: 1790 ± 1450 ng/g
  concentration at 12 h: 174 ± 121 ng/g
[11]; [16]
  concentration at 0 h: 12.9 ± 3.13 ng/g
  concentration at 0.5 h: 4360 ± 3900 ng/g
  concentration at 2 h: 6420 ± 1260 ng/g
  concentration at 4 h: 6660 ± 5810 ng/g
  concentration at 8 h: 1900 ± 1330 ng/g
  concentration at 12 h: 151 ± 116 ng/g
[11]; [17]
  concentration at 0 h: 18.5 ± 4 ng/g
  concentration at 0.5 h: 11400 ± 1780 ng/g
  concentration at 2 h: 7150 ± 1880 ng/g
  concentration at 4 h: 3890 ± 1470 ng/g
  concentration at 8 h: 1450 ± 1430 ng/g
  concentration at 12 h: 132 ± 76.7 ng/g
[11]; [18]
  concentration at 0 h: 18.6 ± 11.7 ng/g
  concentration at 0.5 h: 415 ± 435 ng/g
  concentration at 2 h: 275 ± 158 ng/g
  concentration at 4 h: 181 ± 120 ng/g
